From patent US5834511A, “DL- DI- or tri-hydroxyphenylglycine alkyl esters for the treatment of inflammatory and allergic conditions” (Ciba Specialty Chemicals Corporation, priority 1994, dated 1998)
Like-named read-outs stand apart in the source and are kept apart here.

Columns and labels:
carrageenan oedema = assay: Carrageenan oedema of the rat paw after systemic application; assay type: in vivo, rat (Wistar); conditions: administered simultaneously with carrageenan, paw diameter 3 hours after inducing the oedema
[1] = test system: ear oedema induced by croton oil; assay: Croton oil ear oedema, topical application (antioedematous activity); assay type: in vivo, mouse (AB); conditions: 2×10 μl of a 5% ethanolic solution 1 hour after croton oil, 6 hours after inducing oedema
Method: Antioedamatous activity The assays for determining the antioedamatous activity of the novel compounds of formulae (101) and (102) prepared in Examples 1 and 2 are carried out on male AB mice (18-22 g, 9 animals per group). The ear oedema is induced by applying 2×10 μl of croton oil (1% in acetone) to the ears of the mice. After 1 hour the novel compounds (2×10 μl of a 5% ethanolic solution of each compound) are applied. After a further 5 hours (6 hours after inducing oedema) the animals are sacrificed, and pieces of ear tissue having a diameter of 8 mm are obtained. The oedema weight is determined as the difference between the contralateral ear. The percentage inhibition is calculated from a comparison with the control animals. (Table 2).

[2] = test system: writhing reactions induced by acetic acid; assay: Acetic acid-induced writhing syndrome; assay type: in vivo, mouse (CBA); conditions: i.p., 5×10^-5 mol/kg, 30 minutes before inducement; recorded over 20 minutes
Method: The writhing reactions are induced by i.p. (=intraperitoneal) injection of 0.1 ml of 1% acetic acid/10 g and recorded over a period of 20 minutes after injection.

PGH Synthase = molecular target: T1, PGH Synthase (Ovis aries, UniProt P05979); assay: Prostaglandin H synthase activity, oxygraphic; assay type: biochemical, sheep; conditions: 30 μmol/l arachidonic acid, pH 8.0, 25° C., 5 minutes preincubation
T1 construct: prepared from the seminal vesicles of sheep; from tissue; host or cells: sheep seminal vesicles, microsomal enzyme preparation
T1 sequence (P05979 25-600): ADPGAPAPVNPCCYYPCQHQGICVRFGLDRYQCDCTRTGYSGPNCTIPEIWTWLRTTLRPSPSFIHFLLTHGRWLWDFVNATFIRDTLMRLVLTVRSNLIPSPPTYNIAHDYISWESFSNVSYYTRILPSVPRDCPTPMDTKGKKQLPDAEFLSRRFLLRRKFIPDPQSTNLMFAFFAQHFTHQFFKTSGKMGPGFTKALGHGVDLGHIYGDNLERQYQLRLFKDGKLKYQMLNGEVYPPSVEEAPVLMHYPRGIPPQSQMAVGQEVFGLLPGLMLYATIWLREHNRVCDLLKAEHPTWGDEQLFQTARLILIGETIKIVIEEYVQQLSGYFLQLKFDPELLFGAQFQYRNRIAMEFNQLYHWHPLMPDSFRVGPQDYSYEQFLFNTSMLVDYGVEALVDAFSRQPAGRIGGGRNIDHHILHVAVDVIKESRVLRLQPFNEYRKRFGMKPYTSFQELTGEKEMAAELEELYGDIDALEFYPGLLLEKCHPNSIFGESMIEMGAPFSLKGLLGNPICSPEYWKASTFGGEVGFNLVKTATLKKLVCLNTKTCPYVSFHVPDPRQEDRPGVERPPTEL
Method: Both enzymatic activities are measured oxygraphically at 25° C.

5-LOX = molecular target: T2, 5-LOX (Oryctolagus cuniculus, UniProt P12530); assay: Lipoxygenase activity, oxygraphic (Table 4 column headed 5-LOX; method describes 15-lipoxygenase); assay type: biochemical, rabbit
T2 construct: 15-lipoxygenase from rabbit reticulocytes; from tissue; host or cells: rabbit reticulocytes
T2 sequence (P12530 2-663): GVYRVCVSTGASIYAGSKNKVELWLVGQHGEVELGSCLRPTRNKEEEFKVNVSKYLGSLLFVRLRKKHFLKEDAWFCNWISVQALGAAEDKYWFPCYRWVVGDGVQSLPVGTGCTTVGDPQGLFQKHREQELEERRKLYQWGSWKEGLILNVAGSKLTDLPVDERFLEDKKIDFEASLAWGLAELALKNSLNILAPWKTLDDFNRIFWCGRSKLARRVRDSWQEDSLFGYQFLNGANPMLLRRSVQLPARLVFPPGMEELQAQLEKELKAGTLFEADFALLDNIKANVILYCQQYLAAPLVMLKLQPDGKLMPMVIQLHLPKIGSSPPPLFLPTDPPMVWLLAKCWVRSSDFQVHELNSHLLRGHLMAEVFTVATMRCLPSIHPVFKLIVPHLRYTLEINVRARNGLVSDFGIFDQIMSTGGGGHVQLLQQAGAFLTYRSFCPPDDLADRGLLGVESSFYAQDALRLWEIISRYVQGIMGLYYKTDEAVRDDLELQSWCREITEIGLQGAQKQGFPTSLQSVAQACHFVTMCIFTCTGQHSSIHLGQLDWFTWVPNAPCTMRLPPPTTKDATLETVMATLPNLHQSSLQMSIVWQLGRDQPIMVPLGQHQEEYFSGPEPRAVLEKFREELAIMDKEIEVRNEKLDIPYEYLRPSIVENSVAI
Method: Prostaglandin H synthase is prepared from the seminal vesicles of sheep (F. S. Van der Ouderaa, M. Buytenhek.: Methods Enzymol. 86, 60-68 (1982)), and 15-lipoxygenase from rabbit reticulocytes (T. Schewe, R. Wiesner, S. M. Rapoport: Methods Enzymol. 71, 430-441 (1981)). Both enzymatic activities are measured oxygraphically at 25° C.
The 15-lipoxygenase activity is measured using 265 μmol/l of potassium linoleate as substrate in 0.1 molar phosphate puffer at pH 7.4 and 0.2% sodium cholate (T. Schewe, H. Kuhn, S. M. Rapoport, in: Prostaglandins and Related Substances--A Practical Approach pp. 229-242, C. Benedetto, R. G. McDonald-Gibson, S. Nigam, T. F. Slater (Eds.); IRL Press, Oxford, Wash. (1987)). The compounds are freshly dissolved in 2-methoxyethanol and preincubated for 5 minutes with the enzyme preparation, and the reaction is started by addition of substrate.

5-lipoxygenase = molecular target: T3, 5-lipoxygenase (Homo sapiens, UniProt P09917); assay: Formation of 5-HETE by 5-lipoxygenase of human polymorphonuclear leucozytes; assay type: cell-based; conditions: 1-^14 C-arachidonic acid (10 μmol/l)
T3 construct: 5-lipoxygenase of human polymorphonuclear leucozytes; endogenous in cells; host or cells: human polymorphonuclear leukocytes
T3 sequence (P09917 1-674): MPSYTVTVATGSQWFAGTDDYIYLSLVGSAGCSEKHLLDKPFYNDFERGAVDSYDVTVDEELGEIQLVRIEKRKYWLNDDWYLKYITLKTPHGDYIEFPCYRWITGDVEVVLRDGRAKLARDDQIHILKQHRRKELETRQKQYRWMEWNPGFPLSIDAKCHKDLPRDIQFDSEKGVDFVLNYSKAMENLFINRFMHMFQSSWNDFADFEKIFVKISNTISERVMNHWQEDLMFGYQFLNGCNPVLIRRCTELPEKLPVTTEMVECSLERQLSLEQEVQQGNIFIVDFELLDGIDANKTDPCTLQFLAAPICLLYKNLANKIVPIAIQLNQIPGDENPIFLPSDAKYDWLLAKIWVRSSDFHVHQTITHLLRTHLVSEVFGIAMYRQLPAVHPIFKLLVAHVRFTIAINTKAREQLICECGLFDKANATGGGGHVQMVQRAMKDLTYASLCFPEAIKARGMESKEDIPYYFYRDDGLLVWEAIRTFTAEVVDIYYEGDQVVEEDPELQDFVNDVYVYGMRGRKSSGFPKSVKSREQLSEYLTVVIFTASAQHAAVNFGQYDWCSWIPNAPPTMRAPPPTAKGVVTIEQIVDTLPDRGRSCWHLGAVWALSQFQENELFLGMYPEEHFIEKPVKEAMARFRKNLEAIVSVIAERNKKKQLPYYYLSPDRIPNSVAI

[3] = test system: hydrogen peroxide formation in casein-stimulated peritoneal granulocytes of rats; assay: Formation of hydrogen peroxide induced by opsonated zymosan in casein-stimulated peritoneal granulocytes; assay type: cell-based, rat; conditions: 5×10^6 cells/ml, 30 min incubation
[4] = Rattus norvegicus, ip, read-out: ED50

| Compound | ED50 (carrageenan oedema; [4]) [µmol/kg] | Inhibition [1] [%] | Inhibition [2] [%] | IC50 (PGH Synthase) [µM] | IC50 (5-LOX) [µM] | IC50 (5-lipoxygenase) [µM] | IC50 ([3]; Rattus norvegicus, 0.5 h) [µM] | ED50 (carrageenan oedema; i.p.) | IC50 (5-LOX; 265 μmol/l potassium linoleate, pH 7.4, 25° C., 5 minutes preincubation (method of 15-lipoxygenase), read-out: 5-LOX IC50) [µM] | IC50 [3] [µM] |
| --- | --- | --- | --- | --- | --- | --- | --- | --- | --- | --- |
| CCCCCCCCOC(=O)C(N)c1cc(O)c(O)c(O)c1 (racemic) [compound of formula (102)] | 80 | 45.7 | 80.7 | 85 | 250 | 1.3 | 5.3 | – | – | – |
| CCCCCCCCOC(=O)C(N)c1ccc(O)c(O)c1.Cl (racemic) [compound of formula (101), DL-3,4-dihydroxyphenylglycine octyl ester hydrochloride] | 150 | 23.9 | 80.2 | 110 | 3.9 | 6.9 | 2.3 | – | – | – |
| CC(=O)Oc1ccccc1C(=O)O [acetylsalicylic acid, reference compound] | – | – | 32.3 | – | – | – | – | 15.2 10^-4 mol/kg | > 1000 | > 100 |
